Test results from PubChem BioAssay (NCI).
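In this assay, cells in 96-well plates receive the compound at five concentrations for 48 hours. Endpoints are linearly interpolated between the surrounding concentrations. Definition used: TGI = concentration required for complete inhibition of growth.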

Tests used:
Assay in all cases: inhibition of tumour cell growth, NCI panel, 48 h
[1] = system: U251 CNS
[2] = system: CAKI-1 renal
[3] = system: NCI-H23 lung
[4] = system: UO-31 renal
[5] = system: SK-OV-3 ovarian
[6] = system: 786-0 renal
[7] = system: SNB-75 CNS
[8] = system: MALME-3M melanoma
[9] = system: UACC-62 melanoma
[10] = system: KM12 colon
[11] = system: SNB-19 CNS
[12] = system: MCF7 breast
[13] = system: MDA-MB-435
[14] = system: UACC-257 melanoma
[15] = system: TK-10 renal
[16] = system: BT-549 breast
[17] = system: SK-MEL-28 melanoma
[18] = system: NCI-H226 lung
[19] = system: SW-620 colon
[20] = system: IGROV1 ovarian

| Structure (SMILES) | TGI [1] [µM] | TGI [2] [µM] | TGI [3] [µM] | TGI [4] [µM] | TGI [5] [µM] | TGI [6] [µM] | TGI [7] [µM] | TGI [8] [µM] | TGI [9] [µM] | TGI [10] [µM] | TGI [11] [µM] | TGI [12] [µM] | TGI [13] [µM] | TGI [14] [µM] | TGI [15] [µM] | TGI [16] [µM] | TGI [17] [µM] | TGI [18] [µM] | TGI [19] [µM] | TGI [20] [µM] |
| --- | --- | --- | --- | --- | --- | --- | --- | --- | --- | --- | --- | --- | --- | --- | --- | --- | --- | --- | --- | --- |
| O=c1[nH]c(=S)c2cc3c(=S)[nH]c(=O)n(CCC(c4ccccc4)(c4ccccc4)c4ccccc4)c3nc2n1CCC(c1ccccc1)(c1ccccc1)c1ccccc1 | > 100 | > 100 | > 100 | > 100 | > 100 | > 100 | > 100 | > 100 | > 100 | > 100 | > 100 | > 100 | > 100 | > 100 | > 100 | > 100 | > 100 | > 100 |  |  |
| COC(=O)c1c(C)ccc2c(O)c3c(cc12)C(=O)c1c2c(cc(O)c1C3=O)C1(C)OC(C)(O2)C(O)C(N(C)C)C1O (stereo not drawn) | 1.6 | 6.32 | 3.03 | 9.27 | > 100 | 1.95 | 12.7 | 6.42 | 8.64 | 2.97 | 7.22 | 8.04 | 2.97 | 3.09 | 2.68 | 10.7 | 11.8 | 11.5 | > 100 |  |
| NC(CCl)=NC1CN2CCC1CC2 (stereo not drawn) | > 100 | > 100 | > 100 |  | > 100 | > 100 | > 100 | > 100 | > 100 | > 100 | > 100 | > 100 | > 100 | > 100 | > 100 | > 100 | > 100 | > 100 | > 100 | > 100 |
| OCCN1CN(c2nc(N3CN(CCO)C3)nc(N3CN(CCO)C3)n2)C1 | 53 | 58.2 | 50 | 56.1 |  | 60.7 | 57 | 39.3 | 28.8 | 47.9 | 49.6 | 46.9 | 32.4 | 36.2 | 78.7 | 70.8 | 37.3 | 51.2 | > 100 | 85.6 |
| COc1ccc(/C=C2\Sc3nnc(C)n3N=C2c2cc(F)c(Cl)cc2Cl)cc1OC | 30.2 | 23.7 | 26.7 | 22.6 | 76.9 | 9.64 |  | 37.1 | 33.4 | 33.1 | 11.8 | 19.5 | 23.2 | 32.5 | 32.8 | 34.1 | 49.2 | 51.8 | > 100 | 31 |
| COc1ccccc1C1=C2C(=O)N(C)C(c3ccccc3OC)=C2C(=O)N1C | > 100 | > 100 | > 100 | > 100 | > 100 | 85.5 |  | > 100 | > 100 | > 100 | 75.4 | > 100 | > 100 | > 100 | > 100 | > 100 | > 100 | > 100 | > 100 | > 100 |
| CSc1nc2c(c(=O)n1C)N=C(c1ccc(Cl)cc1)CC(c1ccccc1)N2 (stereo not drawn) | > 100 | 46.4 | 62 | > 100 | 70.3 | > 100 | 37.2 | 36.4 | 34.7 | 31.7 | > 100 | 27.2 | > 100 | 54.8 |  | 56.1 | > 100 | 42.6 | > 100 | 55.4 |
| CC1(C)C2CCC1(C)C(N/C(=C(/C(Cl)=C(Cl)Cl)[N+](=O)[O-])n1nnc3ccccc31)C2 (stereo not drawn) | 43.3 | 37 | 52.2 | 51 | > 100 | > 100 | 70 | 39.4 | 46 | 87.9 | 55.7 | > 100 | 46.2 | > 100 |  | 48.5 | > 100 | 50.3 | > 100 |  |
| O=C(Nc1ccccc1)c1cc(S(=O)(=O)Nc2n[nH]c(=O)[nH]2)c(SSc2cc(Cl)c(C(=O)Nc3ccccc3)cc2S(=O)(=O)Nc2n[nH]c(=O)[nH]2)cc1Cl | > 100 | > 100 | > 100 | > 100 | > 100 | > 100 | > 100 | > 100 |  | > 100 | > 100 | > 100 | > 100 | > 100 | > 100 | > 100 | > 100 | > 100 | > 100 | > 100 |
| O=C1C(Cl)=C(Oc2ccc([N+](=O)[O-])cc2)C(=O)c2c(O)ccc(O)c21 | > 100 |  | > 100 | > 100 | > 100 | > 100 | > 100 | 40.1 | > 100 | > 100 | > 100 | > 100 | > 67.8 | > 100 | > 94 | > 100 | > 76.2 | > 100 | > 80.9 | > 100 |
| CC(C)=NNc1cnnc2ccc([N+](=O)[O-])cc12 | > 100 | > 100 | > 100 | > 100 | > 100 | > 100 | > 100 | > 100 |  | > 100 | > 100 | > 100 | > 100 | > 100 |  | > 100 |  | > 100 | > 100 | > 100 |
| CCN(CC)c1ccc(/C=c2\nc(-c3ccccc3)n3c2nc2ccccc23)cc1 | > 100 | 9.72 | > 100 | > 100 | > 100 | > 100 |  | 52.3 | 30.9 | > 100 | > 100 | > 100 | 48.8 | 99.3 | > 100 | 72.2 |  | 60.5 | > 100 | > 100 |
